Measurements taken from US8227511B2, “Substituted chromanol derivatives and their use” (Bayer Intellectual Property GmbH, priority 2006, dated 2012).

Assays:
CETP [1] = biological target: T1, CETP (Homo sapiens, UniProt P11597); assay: CETP fluorescence test with enriched CETP; format: biochemical; details: enriched CETP fraction from human plasma; transfer of fluorescent cholesterol ester between liposomes; 37° C. for 4 h
T1 construct: CETP is obtained in partially purified form from human plasma by differential centrifugation and column chromatography and used for the test; from tissue; host or cells: human plasma
T1 sequence (P11597 18-493): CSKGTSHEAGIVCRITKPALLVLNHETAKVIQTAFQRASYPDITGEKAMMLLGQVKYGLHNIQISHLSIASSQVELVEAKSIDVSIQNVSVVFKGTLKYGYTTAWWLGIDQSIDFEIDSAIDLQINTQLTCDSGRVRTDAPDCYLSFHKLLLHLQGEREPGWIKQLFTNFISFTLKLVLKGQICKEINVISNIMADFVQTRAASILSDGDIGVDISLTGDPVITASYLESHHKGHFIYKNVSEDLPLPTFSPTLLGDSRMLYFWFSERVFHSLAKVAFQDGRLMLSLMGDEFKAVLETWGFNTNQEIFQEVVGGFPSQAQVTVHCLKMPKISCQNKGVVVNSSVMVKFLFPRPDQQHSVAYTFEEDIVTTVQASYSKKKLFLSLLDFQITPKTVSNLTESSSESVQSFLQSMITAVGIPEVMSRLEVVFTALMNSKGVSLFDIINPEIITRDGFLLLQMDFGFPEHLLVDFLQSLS
Protocol: (§1) CETP is obtained in partially purified form from human plasma by differential centrifugation and column chromatography and used for the test. To this end, human plasma is adjusted to a density of 1.21 g per ml using NaBr and centrifuged at 4° C. at 50 000 rpm for 18 h. The bottom fraction (d>1.21 g/ml) is applied to a Phenyl-Sepharose 26/10 HP fast flow-column (Pharmacia), washed with PBS buffer and then eluted with distilled water. 10 parts of PBS buffer and 1% (w/v) BSA are added to the eluate. The CETP-active fractions are pooled.
Measurement of the CETP-catalyzed transfer of a fluorescent cholesterol ester between liposomes [modified according to the procedure of Bisgaier et al., J. Lipid Res. 34, 1625 (1993)]:
For the production of the donor liposomes, 1 mg of cholesteryl 4,4-difluoro-5,7-dimethyl-4-bora-3a,4a-diaza-s-indacene-3-dodecanoate (cholesteryl BODIPY® FL C12, Molecular Probes) is dissolved in 2 ml of chloroform with 5.35 mg of triolein and 6.67 mg of phosphatidylcholine. The solvent is removed at medium temperature in a SpeedVac and the residue is dried under high vacuum for 1 h. The residue is then dissolved in 600 μl of dioxane with gentle warming in an ultrasonic bath and this solution is added very slowly with ultrasonication to 63 ml of 50 mM Tris/HCl, 150 mM NaCl, 2 mM EDTA buffer pH 7.3 at room temperature. The suspension is then ultrasonicated under an N2 atmosphere for 30 minutes in the Branson ultrasonic bath at about 50 watts, the temperature being kept at about 20° C.
The acceptor liposomes are obtained analogously from 86 mg of cholesteryl oleate, 20 mg of triolein and 100 mg of phosphatidylcholine dissolved in 1.2 ml of dioxane and 114 ml of the above buffer by ultrasonication at 50 watts (20° C.) for 30 minutes.
For testing, a test mix consisting of 1 part of above buffer, 1 part of donor liposomes and 2 parts of acceptor liposomes is used.
50 μl of test mix are treated with 48 μl of enriched CETP fraction (1-3 μg), obtained from human plasma by means of hydrophobic chromatography, and 2 μl of a solution of the substance to be investigated in DMSO and incubated at 37° C. for 4 h.
The change in the fluorescence at 485/535 nm is a measure of the CE transfer; the inhibition of the transfer in comparison to the control batch without substance is determined.

CETP [2] = biological target: T1, CETP; assay: CETP-SPA test; format: biochemical; details: transfer of 3H-cholesterol ester from human HDL to biotinylated LDL; 37° C. for 18 h
Protocol: as §1
For testing of the CETP activity, the transfer of ^3H-cholesterol ester from human HD lipoproteins to biotinylated LD lipoproteins is measured. The reaction is ended by addition of streptavidin-SPA® beads (Amersham) and the transferred radioactivity is determined directly in a liquid scintillation counter.
In the test batch, 10 μl of HDL-3H-cholesterol ester (about 50 000 cpm) are incubated at 37° C. for 18 h with 10 μl of biotin-LDL (Amersham) in 50 mM Hepes/0.15 M NaCl/0.1% bovine serum albumin (RSA)/0.05% NaN3 pH 7.4 containing 10 μl of CETP (1 mg/ml) and 3 μl of a solution of the substance to be tested (dissolved in 10% DMSO/1% RSA). 200 μl of the SPA-streptavidin bead solution (TRKQ 7005) are then added, incubated further with shaking for 1 h and then measured in a scintillation counter. Corresponding incubations with 10 μl of buffer, 10 μl of CETP at 4° C. and 10 μl of CETP at 37° C. serve as controls.
The activity transferred in the control batches with CETP at 37° C. is rated as 100% transfer. The substance concentration at which this transfer is reduced to half is specified as the IC50 value.

transgenic hCETP mice = assay: Measurement of the in vivo activity in transgenic hCETP mice; details: perorally once a day on 3 days, percentage change compared with the starting value
Protocol: To determine the oral action on lipoproteins and triglycerides, test substance is administered perorally to transgenic mice [Dinchuk et al., BBA, 1295-1301 (1995)] using a stomach tube once a day on 3 days. For this purpose, the substances are dissolved in 10% Solutol HS 15/10% ethanol/80% of a 0.9% strength sodium chloride solution; the administration volume is generally 10 ml per kg of body weight. Before the start of the experiment, blood is withdrawn from the mice retro-orbitally in order to determine cholesterol and triglycerides in the serum. The serum is obtained as described above for hamsters by incubation at room temperature for 30 min and subsequent centrifugation at 6000 g. On the day after the last administration of substance, blood is again withdrawn from the mice in order to determine lipoproteins and triglycerides. The changes in the parameters measured are expressed as the percentage change compared with the starting value.

| SMILES | IC50 (CETP [1]) [nM] | IC50 (CETP [2]) [nM] | % increase of HDL after 3 d (dose: 3 × 3 mg/kg) (transgenic hCETP mice) [%] |
| --- | --- | --- | --- |
| CC(C)c1cc2c(c(-c3ccc(F)cc3)c1Cc1ccc(C(F)(F)F)cc1)[C@@H](O)CC1(CCC1)O2 [Example 32, (4S)-5-(4-Fluorophenyl)-7-isopropyl-6-[4-(trifluoromethyl)benzyl]-3,4-dihydrospiro[chromen-2,1′-cyclobutan]-4-ol] | 19 | 4 | 31 |
| CC(C)c1cc2c(c(-c3ccc(F)cc3)c1[C@@H](F)c1ccc(C(F)(F)F)cc1)[C@@H](O)CC(C)(C)O2 [Example 7, (4S)-5-(4-Fluorophenyl)-6-{(S)-fluoro[4-(trifluoromethyl)phenyl]methyl}-7-isopropyl-2,2-dimethylchroman-4-ol] | 32 | 20 | 67 |
| CC(C)c1cc2c(c(-c3ccc(F)cc3)c1[C@@H](F)c1ccc(C(F)(F)F)cc1)[C@@H](O)CC1(CCC1)O2 [Example 30, (4S)-5-(4-Fluorophenyl)-6-{(S)-fluoro[4-(trifluoromethyl)phenyl]methyl}-7-isopropyl-3,4-dihydro-spiro[chromen-2,1′-cyclobutan]-4-ol] | 18 | 12 | 83 |
| CC(C)c1cc2c(c(-c3ccc(F)cc3)c1[C@@H](O)c1ccc(C(F)(F)F)cc1)[C@@H](O)CC(C)(C)O2 [Example 5, (4S)-5-(4-Fluorophenyl)-6-{(S)-hydroxy[4-(trifluoromethyl)phenyl]methyl}-7-isopropyl-2,2-di-methylchroman-4-ol] | 35 | 29 | – |
| CC(C)c1cc2c(c(-c3ccc(F)cc3)c1[C@H](O)c1ccc(C(C)(C)C)cc1)[C@@H](O)CC1(CCC1)O2 [Example 35, (4S)-6-[(R)-(4-tert-butylphenyl)(hydroxy)methyl]-5-(4-fluorophenyl)-7-isopropyl-3,4-dihydro-spiro[chromen-2,1′-cyclobutan]-4-ol] | 800 | 400 | – |
| CC(C)c1cc2c(c(-c3ccc(F)cc3)c1C(=O)c1ccc(C(F)(F)F)cc1)[C@@H](O)CC(C)(C)O2 [Example 4, [(4S)-5-(4-Fluorophenyl)-4-hydroxy-7-isopropyl-2,2-dimethyl-3,4-dihydro-2H-chromen-6-yl][4-(trifluoromethyl)phenyl]methanone] | 90 | 62 | – |
| CC(C)c1cc2c(c(-c3ccc(F)cc3)c1C(=O)c1ccc(C(F)(F)F)cc1)[C@@H](O)CC1(CCC1)O2 [Example 27, [(4S)-5-(4-Fluorophenyl)-4-hydroxy-7-isopropyl-3,4-dihydrospiro[chromen-2,1′-cyclobutan]-6-yl]-[4-(trifluoromethyl)phenyl]methanone] | 35 | 18 | – |
| CC(C)c1cc2c(c(-c3ccc(F)cc3)c1Cc1ccc(C(F)(F)F)cc1)[C@@H](O)CC(C)(C)O2 [Example 9, (4S)-5-(4-Fluorophenyl)-7-isopropyl-2,2-dimethyl-6-[4-(trifluoromethyl)benzyl]chroman-4-ol] | 90 | 33 | – |
| CC(C)c1cc2c(c(C3=CCCCC3)c1C(=O)c1ccc(C(F)(F)F)cc1)[C@@H](O)CC(C)(C)O2 [Example 19, (5-Cyclohex-1-en-1-yl-4-hydroxy-7-isopropyl-2,2-dimethyl-3,4-dihydro-2H-chromen-6-yl)[4-(tri-fluoromethyl)phenyl]methanone] | 200 | 300 | – |

Continued, in another order:

| IC50 (CETP [1]) [nM] | IC50 (CETP [2]) [nM] | SMILES | % increase of HDL after 3 d (dose: 3 × 3 mg/kg) (transgenic hCETP mice) [%] |
| --- | --- | --- | --- |
| 36 | 30 | CC(C)c1cc2c(c(-c3ccc(F)cc3)c1C(=O)c1ccc(OC(F)(F)F)cc1)[C@@H](O)CC1(CCC1)O2 [Example 37, [(4S)-5-(4-Fluorophenyl)-4-hydroxy-7-isopropyl-3,4-dihydrospiro[chromen-2,1′-cyclobutan]-6-yl]-[4-(trifluoromethoxy)phenyl]methanone] | – |
| 61 | 100 | CC(C)c1cc2c(c(C3CCCC3)c1[C@H](F)c1ccc(C(F)(F)F)cc1)[C@@H](O)CC1(CCC1)O2 [Example 43, (4S)-5-cyclopentyl-6-{(R)-fluoro[4-(trifluoromethyl)phenyl]methyl}-7-isopropyl-3,4-dihydrospiro-[chroman-2,1′-cyclobutan]-4-ol] | – |
| 28 | 6 | CC(C)c1cc2c(c(-c3ccc(F)cc3)c1Cc1ccc(C(C)(C)C)cc1)[C@@H](O)CC1(CCC1)O2 [Example 36, (4S)-6-(4-tert-Butylbenzyl)-5-(4-fluorophenyl)-7-isopropyl-3,4-dihydrospiro[chromen-2,1′-cyclo-butan]-4-ol] | 40 |
| 45 | 31 | O=C(c1ccc(C(F)(F)F)cc1)c1c(C2CCCC2)cc2c(c1-c1ccc(F)cc1)[C@@H](O)CC1(CCC1)O2 [Example 44] | – |
| 42 | 100 | O=C(c1ccc(OC(F)(F)F)cc1)c1c(C2CCCC2)cc2c(c1-c1ccc(F)cc1)[C@@H](O)CC1(CCC1)O2 [Example 51] | – |
| 50 | 38 | CC(C)(C)c1ccc(C(=O)c2c(C3CCCC3)cc3c(c2-c2ccc(F)cc2)[C@@H](O)CC2(CCC2)O3)cc1 [Example 47] | – |
| 198 | 30 | O[C@@H](c1ccc(OC(F)(F)F)cc1)c1c(C2CCCC2)cc2c(c1-c1ccc(F)cc1)[C@@H](O)CC1(CCC1)O2 [Example 52] | – |
| 19 | 15 | CC(C)c1cc2c(c(-c3ccc(F)cc3)c1Cc1ccc(OC(F)(F)F)cc1)[C@@H](O)CC1(CCC1)O2 [Example 41, (4S)-5-(4-Fluorophenyl)-7-isopropyl-6-[4-(trifluoromethoxy)benzyl]-3,4-dihydrospiro[chromen-2,1′-cyclobutan]-4-ol] | – |
| 30 | 15 | CC(C)(C)c1ccc(Cc2c(C3CCCC3)cc3c(c2-c2ccc(F)cc2)[C@@H](O)CC2(CCC2)O3)cc1 [Example 50] | – |
